Laboratory results from a compilation of properties of binary mixtures (doi:10.1021/acs.jced.9b01018).

Test: xn = mol fraction of the nth substance listed
Details: 100 kPa

CC(=O)[O-].CCCC[n+]1ccn(C)c1 + O
viscosity [mPa·s]
Details	278.15 K	283.15 K	293.15 K	298.15 K	303.15 K	313.15 K	323.15 K	333.15 K	343.15 K	353.15 K
x2 = 0.012	2390	1403	562	375	260	136.6	79.4	–	31.37	21.85
x2 = 0.0173	2429	1425	567	380	263	–	78	48.1	31.4	22.07
